Values of other authors, collected in patent publication US20220160665A1, “COMPOSITION IN MICRO-ENCAPSULATED FORM, BASED ON N-BUTYRICACID OR DERIVATIVES THEREOF, FOR TREATING CROHNS DISEASE OR ULCERATIVE RECTAL COLITIS” (SILA S.R.L., priority 2019, published 2022).

Conditions: solid granular form, white-coloured powder, commercially available

CCCC(=O)[O-].[Na+] [sodium salt of the n-butyric acid]
temperature up to which stable: up to 250 °C
